Activity calls are given as the source filed them. No cut-off for these calls is given here.
Columns and labels:
[1] = molecular target: T1, Prostaglandin G/H synthase 2 (Ovis aries, UniProt P79208); experiment: Inhibition of sheep placental cotyledens COX2 assessed as PGE2 level by EIA
T1 sequence (P79208 whole entry): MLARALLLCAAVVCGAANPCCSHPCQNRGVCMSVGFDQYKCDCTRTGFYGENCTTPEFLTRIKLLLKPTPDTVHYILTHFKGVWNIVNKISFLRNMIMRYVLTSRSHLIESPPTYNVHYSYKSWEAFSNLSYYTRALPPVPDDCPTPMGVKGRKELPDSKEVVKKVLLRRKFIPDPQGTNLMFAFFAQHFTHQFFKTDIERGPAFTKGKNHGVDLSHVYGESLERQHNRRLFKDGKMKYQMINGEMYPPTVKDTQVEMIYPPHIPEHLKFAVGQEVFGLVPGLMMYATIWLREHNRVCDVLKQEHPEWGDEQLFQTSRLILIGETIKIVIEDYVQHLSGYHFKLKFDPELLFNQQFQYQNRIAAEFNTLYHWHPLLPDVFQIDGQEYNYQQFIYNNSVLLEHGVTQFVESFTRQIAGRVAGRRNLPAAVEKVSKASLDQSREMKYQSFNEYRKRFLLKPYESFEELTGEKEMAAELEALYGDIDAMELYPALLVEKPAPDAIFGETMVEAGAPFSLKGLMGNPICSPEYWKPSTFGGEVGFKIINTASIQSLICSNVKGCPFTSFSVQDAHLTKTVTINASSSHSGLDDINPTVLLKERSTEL

[2] = molecular target: T2, Prostaglandin G/H synthase 1 (Ovis aries) (UniProt P05979); experiment: Inhibition of ram seminal vesicle COX1 at 50 uM assessed as PGE2 concentration
T2 sequence (whole entry): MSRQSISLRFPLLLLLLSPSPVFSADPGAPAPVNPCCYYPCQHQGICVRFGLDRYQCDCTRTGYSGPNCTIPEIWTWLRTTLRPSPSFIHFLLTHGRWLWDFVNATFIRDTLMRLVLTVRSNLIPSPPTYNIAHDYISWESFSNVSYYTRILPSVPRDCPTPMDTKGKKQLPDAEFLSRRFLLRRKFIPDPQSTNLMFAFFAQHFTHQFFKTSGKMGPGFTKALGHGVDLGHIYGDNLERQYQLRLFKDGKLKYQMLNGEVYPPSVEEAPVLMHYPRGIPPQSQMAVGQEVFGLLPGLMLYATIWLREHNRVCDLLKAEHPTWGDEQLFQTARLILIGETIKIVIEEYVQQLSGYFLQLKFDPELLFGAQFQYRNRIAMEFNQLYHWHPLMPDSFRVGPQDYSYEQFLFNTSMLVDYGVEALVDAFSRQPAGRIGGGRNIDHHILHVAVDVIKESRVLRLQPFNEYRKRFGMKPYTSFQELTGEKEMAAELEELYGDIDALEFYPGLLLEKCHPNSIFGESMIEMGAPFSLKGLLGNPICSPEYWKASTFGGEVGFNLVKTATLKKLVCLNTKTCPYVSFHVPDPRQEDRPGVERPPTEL

[3] = molecular target: T3, Polyunsaturated fatty acid 5-lipoxygenase (Homo sapiens) (UniProt P09917); experiment: Inhibition of 5-LOX-mediated LTB4 production from stimulated human neutrophile granulocytes at 50 uM after 10 mins by EIA
T3 sequence (whole entry): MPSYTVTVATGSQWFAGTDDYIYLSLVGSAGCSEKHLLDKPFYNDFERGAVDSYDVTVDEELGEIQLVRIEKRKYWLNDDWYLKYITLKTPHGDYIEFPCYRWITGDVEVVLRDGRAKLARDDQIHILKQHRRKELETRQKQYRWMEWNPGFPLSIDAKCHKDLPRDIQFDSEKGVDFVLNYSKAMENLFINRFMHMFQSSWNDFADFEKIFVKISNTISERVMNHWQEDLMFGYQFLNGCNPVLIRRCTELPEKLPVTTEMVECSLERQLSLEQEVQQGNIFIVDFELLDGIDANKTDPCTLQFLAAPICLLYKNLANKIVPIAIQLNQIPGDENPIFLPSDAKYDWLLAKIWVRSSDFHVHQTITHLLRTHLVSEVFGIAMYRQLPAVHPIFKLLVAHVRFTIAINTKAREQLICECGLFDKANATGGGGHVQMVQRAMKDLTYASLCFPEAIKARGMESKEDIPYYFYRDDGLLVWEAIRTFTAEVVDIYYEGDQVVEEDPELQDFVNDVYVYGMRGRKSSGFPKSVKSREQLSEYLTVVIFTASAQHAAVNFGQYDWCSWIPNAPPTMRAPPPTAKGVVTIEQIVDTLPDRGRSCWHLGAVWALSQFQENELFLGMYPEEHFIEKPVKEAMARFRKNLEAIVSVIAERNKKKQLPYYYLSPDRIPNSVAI

[4] = molecular target: T4, Prostaglandin G/H synthase 2 (Ovis aries) (UniProt P79208); experiment: Inhibition of ram seminal vesicle COX2 at 50 uM assessed as PGE2 level by EIA; type: tissue-based
T4 sequence (whole entry): T1 sequence (P79208 whole entry)

[5] = molecular target: T5, Polyunsaturated fatty acid 5-lipoxygenase (Homo sapiens, UniProt P09917); experiment: Inhibition of 5-LOX-mediated LTB4 production in stimulated human neutrophile granulocytes after 10 mins by EIA
T5 sequence (P09917 whole entry): T3 sequence (whole entry)

`CC(O)C1(C)Cc2cc(O)c(O)c(O)c2-c2c(cc(O)c(O)c2O)C1` (stereo unspecified) was tested, and the IC50 [1] was 32.1 µM, the inhibition [2] was “inactive” and the inhibition [3] was 37.3%.
For `COc1cc2c(c(OC)c1OC)-c1c(cc(OC)c(OC)c1OC)C[C@](C)(O)[C@@H](C)C2`, the inhibition [2] was “inactive”, the inhibition [4] was “inactive” and the inhibition [3] was “inactive”.
With `COc1cc2c(c(O)c1O)-c1c(cc(OC)c(O)c1O)CC(C)(C(C)O)C2` (stereo unspecified) the inhibition [2] was “inactive” and the IC50 [5] was 4.2 µM.
In the case of `COc1cc2c(c(OC)c1OC)-c1c(cc3c(c1OC)OCO3)C[C@H](C)[C@](C)(O)C2`, the inhibition [2] is reported as “inactive”, the inhibition [4] is reported as “inactive” and the inhibition [3] is reported as “inactive”.
In the case of `C/C=C(/C)C(=O)Oc1c(OC)c(OC)cc2c1-c1c(cc(OC)c(OC)c1OC)C[C@](C)(O)[C@@H](C)C2`, the inhibition [2] is reported as “inactive”, the inhibition [4] is reported as “inactive” and the inhibition [3] is reported as “inactive”.
`C/C=C(\C)C(=O)Oc1c(OC)c(OC)cc2c1-c1c(cc(OC)c(OC)c1OC)C[C@](C)(O)[C@@H](C)C2` was tested, and the inhibition [2] was “inactive”, the inhibition [4] was “inactive” and the inhibition [3] was “inactive”.
With `COc1cc2c(c(O)c1O)-c1c(cc(OC)c(O)c1O)C[C@](C)(O)[C@@H](C)C2` the inhibition [2] was “inactive” and the inhibition [4] was “inactive”.
In the case of `COc1cc2c(c(OC)c1OC)-c1c(cc(OC)c(OC)c1OC)CC(C)(C(C)I)C2` (stereo unspecified), the inhibition [2] is reported as “inactive” and the IC50 [5] is reported as 4.5 µM.
